Assays:
[1] = tested on: Glomerella lacenarium (Colletotrichum lacenarium); assay: Glomerella lacenarium (Colletotrichum lacenarium) liquid culture / cucumber / preventative (anthracnose); format: cell-based; details: 20 ppm in the applied formulation, liquid culture in PDB, 24° C., 3 to 4 days after application, read-out: disease control (inhibition of growth, photometric) compared to untreated control
Summary of the method: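 At 20 ppm in the applied formulation, compounds were mixed with fungal spores in potato dextrose broth and held at 24° C. After 3–4 days, photometric growth measurement gave percent antifungal activity relative to untreated control.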

[2] = tested on: Puccinia recondita f. Sp. Tritici; assay: Puccinia recondita f. sp. tritici / wheat / leaf disc curative (brown rust); format: in vivo; details: foliar, 200 ppm in the applied formulation, wheat leaf segments, curative (applied 1 day after inoculation), assessed 6 to 8 days after application, read-out: disease control compared to untreated control leaf disks
Summary of the method: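 Curative treatment: formulated compound in water was applied 1 day post-inoculation to spore-inoculated wheat cv. Kanzler segments held on agar. Segments stayed at 19° C and 75% relative humidity (12 h photoperiod after application), and disease control relative to untreated checks was assessed 6 to 8 days later.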

[3] = tested on: Phakopsora pachyrhizi; assay: Phakopsora pachyrhizi / soybean / leaf disc preventative (Asian soybean rust); format: in vivo; details: foliar, 200 ppm in the applied formulation, soybean leaf disks, assessed 12 to 14 days after application, read-out: disease control compared to untreated control leaf disks
Summary of the method: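 Soybean leaf discs on water agar were sprayed with formulated compound diluted in water, then inoculated one day later with spore suspension on the lower leaf surface. Held 24-36 h dark at 20° C., 75% RH, then 12 h light/day; percent disease control versus untreated scored 12 to 14 days after application.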

[4] = tested on: Puccinia recondita f. Sp. Tritici; assay: Puccinia recondita f. sp. tritici / wheat / leaf disc preventative (brown rust); format: in vivo; details: foliar, 200 ppm in the applied formulation, wheat leaf segments, preventative, assessed 7 to 9 days after application, read-out: disease control compared to untreated control leaf disks
Summary of the method: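 Wheat cv. Kanzler leaf segments on agar sprayed with formulated compound in water, inoculated with rust spores 1 day later. Incubated at 19° C, 75% rh, 12 h light/12 h dark; percent disease control versus untreated scored 7 to 9 days after application; tested at 200 ppm.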

CN(C)C(=O)C(=O)NCc1ccc(-c2noc(C(F)(F)F)n2)c(F)c1 [Compound 4.93, N-[[3-fluoro-4-[5-(trifluoromethyl)-1,2,4-oxadiazol-3-yl]phenyl]methyl]-N',N'-dimethyl-oxamide]
≥ 80%: inhibition at 20 ppm [1] | pest or weed control at 200 ppm [2] | pest or weed control at 200 ppm [3] | pest or weed control at 200 ppm [4]

CCCC(=O)C(=O)N(Cc1ccc(-c2noc(C(F)(F)F)n2)cc1)OC [Compound 1.3, N-methoxy-2-oxo-N-[[4-[5-(trifluoromethyl)-1,2,4-oxadiazol-3-yl]phenyl]methyl]pentanamide]
≥ 80%: inhibition at 20 ppm [1] | pest or weed control at 200 ppm [2] | pest or weed control at 200 ppm [3] | pest or weed control at 200 ppm [4]

O=C(NCc1ccc(-c2noc(C(F)(F)F)n2)c(F)c1)C(=O)c1cccs1 [Compound 1.44, N-[[3-fluoro-4-[5-(trifluoromethyl)-1,2,4-oxadiazol-3-yl]phenyl]methyl]-2-oxo-2-(2-thienyl)acetamide]
≥ 80%: inhibition at 20 ppm [1] | pest or weed control at 200 ppm [2] | pest or weed control at 200 ppm [3] | pest or weed control at 200 ppm [4]

CCCC(=O)C(=O)N(C)Cc1ccc(-c2noc(C(F)(F)F)n2)cc1 [Compound 1.21, N-methyl-2-oxo-N-[[4-[5-(trifluoromethyl)-1,2,4-oxadiazol-3-yl]phenyl]methyl]pentanamide]
≥ 80%: inhibition at 20 ppm [1] | pest or weed control at 200 ppm [2] | pest or weed control at 200 ppm [3] | pest or weed control at 200 ppm [4]

CON(C)C(=O)C(=O)N(Cc1ccc(-c2noc(C(F)(F)F)n2)cc1)OC [Compound 4.65, N,N′-dimethoxy-N-methyl-N′-[[4-[5-(trifluoromethyl)-1,2,4-oxadiazol-3-yl]phenyl]methyl] oxamide]
≥ 80%: inhibition at 20 ppm [1] | pest or weed control at 200 ppm [2] | pest or weed control at 200 ppm [3] | pest or weed control at 200 ppm [4]

CN(C)C(=O)C(=O)N(C)Cc1ccc(-c2noc(C(F)(F)F)n2)cc1 [Compound 4.29, N,N,N′-trimethyl-N'-[[4-[5-(trifluoromethyl)-1,2,4-oxadiazol-3-yl]phenyl]methyl] oxamide]
≥ 80%: inhibition at 20 ppm [1] | pest or weed control at 200 ppm [2] | pest or weed control at 200 ppm [3] | pest or weed control at 200 ppm [4]

C=CCNC(=O)C(=O)N(Cc1ccc(-c2noc(C(F)(F)F)n2)cc1)OC [Compound 4.76, N-allyl-N′-methoxy-N′-[[4-[5-(trifluoromethyl)-1,2,4-oxadiazol-3-yl]phenyl]methyl] oxamide]
≥ 80%: inhibition at 20 ppm [1] | pest or weed control at 200 ppm [2] | pest or weed control at 200 ppm [3] | pest or weed control at 200 ppm [4]

CCN(CC)C(=O)C(=O)N(Cc1ccc(-c2noc(C(F)(F)F)n2)cc1)OC [Compound 4.69, N,N-diethyl-N′-methoxy-N′-[[4-[5-(trifluoromethyl)-1,2,4-oxadiazol-3-yl]phenyl]methyl] oxamide]
≥ 80%: inhibition at 20 ppm [1] | pest or weed control at 200 ppm [2] | pest or weed control at 200 ppm [3] | pest or weed control at 200 ppm [4]

CNC(=O)C(=O)NCc1ccc(-c2noc(C(F)(F)F)n2)cc1 [Compound 4.47, N-methyl-N′-[[4-[5-(trifluoromethyl)-1,2,4-oxadiazol-3-yl]phenyl]methyl] oxamide]
≥ 80%: inhibition at 20 ppm [1] | pest or weed control at 200 ppm [2] | pest or weed control at 200 ppm [3] | pest or weed control at 200 ppm [4]

CON(Cc1ccc(-c2noc(C(F)(F)F)n2)cc1)C(=O)C(=O)CC(C)C [Compound 1.72, N-methoxy-4-methyl-2-oxo-N-[[4-[5-(trifluoromethyl)-1,2,4-oxadiazol-3-yl]phenyl]methyl]pentanamide]
≥ 80%: inhibition at 20 ppm [1] | pest or weed control at 200 ppm [2] | pest or weed control at 200 ppm [3] | pest or weed control at 200 ppm [4]

Cc1cc(-c2noc(C(F)(F)F)n2)ccc1CNC(=O)C(=O)N(C)C [Compound 4.97, N′,N′-dimethyl-N-[[2-methyl-4-[5-(trifluoromethyl)-1,2,4-oxadiazol-3-yl]phenyl]methyl] oxamide]
≥ 80%: inhibition at 20 ppm [1] | pest or weed control at 200 ppm [2] | pest or weed control at 200 ppm [3] | pest or weed control at 200 ppm [4]

CCC(=O)C(=O)N(Cc1ccc(-c2noc(C(F)(F)F)n2)cc1F)OC [Compound 1.58, N-[[2-fluoro-4-[5-(trifluoromethyl)-1,2,4-oxadiazol-3-yl]phenyl]methyl]-N-methoxy-2-oxo-butanamide]
≥ 80%: inhibition at 20 ppm [1] | pest or weed control at 200 ppm [2] | pest or weed control at 200 ppm [3] | pest or weed control at 200 ppm [4]

O=C(NCc1ccc(-c2noc(C(F)(F)F)n2)cc1F)C(=O)c1ccccc1 [Compound 1.37, N-[[2-fluoro-4-[5-(trifluoromethyl)-1,2,4-oxadiazol-3-yl]phenyl]methyl]-2-oxo-2-phenyl-acetamide]
≥ 80%: inhibition at 20 ppm [1] | pest or weed control at 200 ppm [2] | pest or weed control at 200 ppm [3] | pest or weed control at 200 ppm [4]

CCN(Cc1ccc(-c2noc(C(F)(F)F)n2)cc1)C(=O)C(C)=O [Compound 1.18, N-ethyl-2-oxo-N-[[4-[5-(trifluoromethyl)-1,2,4-oxadiazol-3-yl]phenyl]methyl]propanamide]
≥ 80%: inhibition at 20 ppm [1] | pest or weed control at 200 ppm [2] | pest or weed control at 200 ppm [3] | pest or weed control at 200 ppm [4]

CC(=O)C(=O)NCc1c(F)cc(-c2noc(C(F)(F)F)n2)cc1F [Compound 1.87, N-[[2,6-difluoro-4-[5-(trifluoromethyl)-1,2,4-oxadiazol-3-yl]phenyl]methyl]-2-oxo-propanamide]
≥ 80%: inhibition at 20 ppm [1] | pest or weed control at 200 ppm [2] | pest or weed control at 200 ppm [3] | pest or weed control at 200 ppm [4]

CCN(Cc1ccc(-c2noc(C(F)(F)F)n2)cc1)C(=O)C(=O)C1CC1 [Compound 1.93, 2-cyclopropyl-N-ethyl-2-oxo-N-[[4-[5-(trifluoromethyl)-1,2,4-oxadiazol-3-yl]phenyl]methyl]acetamide]
≥ 80%: inhibition at 20 ppm [1] | pest or weed control at 200 ppm [2] | pest or weed control at 200 ppm [3] | pest or weed control at 200 ppm [4]

O=C(NCc1ccc(-c2noc(C(F)(F)F)n2)cc1F)C(=O)c1ccco1 [Compound 1.77, N-[[2-fluoro-4-[5-(trifluoromethyl)-1,2,4-oxadiazol-3-yl]phenyl]methyl]-2-(2-furyl)-2-oxo-acetamide]
≥ 80%: inhibition at 20 ppm [1] | pest or weed control at 200 ppm [2] | pest or weed control at 200 ppm [3] | pest or weed control at 200 ppm [4]

O=C(NCc1ccc(-c2noc(C(F)(F)F)n2)cc1)C(=O)c1cccs1 [Compound 1.51, 2-oxo-2-(2-thienyl)-N-[[4-[5-(trifluoromethyl)-1,2,4-oxadiazol-3-yl]phenyl]methyl]acetamide]
≥ 80%: inhibition at 20 ppm [1] | pest or weed control at 200 ppm [2] | pest or weed control at 200 ppm [3] | pest or weed control at 200 ppm [4]

COCCN(Cc1ccc(-c2noc(C(F)(F)F)n2)cc1)C(=O)C(C)=O [Compound 1.10, N-(2-methoxyethyl)-2-oxo-N-[[4-[5-(trifluoromethyl)-1,2,4-oxadiazol-3-yl]phenyl]methyl]propanamide]
≥ 80%: inhibition at 20 ppm [1] | pest or weed control at 200 ppm [2] | pest or weed control at 200 ppm [3] | pest or weed control at 200 ppm [4]

CCC(=O)C(=O)NCc1ccc(-c2noc(C(F)(F)F)n2)cc1 [Compound 1.53, 2-oxo-N-[[4-[5-(trifluoromethyl)-1,2,4-oxadiazol-3-yl]phenyl]methyl]butanamide]
≥ 80%: inhibition at 20 ppm [1] | pest or weed control at 200 ppm [2] | pest or weed control at 200 ppm [3] | pest or weed control at 200 ppm [4]
